Data reported in patent publication US20060235062A1, “Novel heterocyclic analogs of diphenylethylene compounds” (THERACOS, INC., priority 2002, published 2006).

Key:
HepG2 cells = test: Glycogen synthesis in HepG2 cells; type: cell-based; details: HepG2, absence of insulin
IkappaB = test: LPS-stimulated phosphorylation of IkappaB in RAW 264.7 cells; type: cell-based; details: RAW 264.7 cells, 3, 10 or 30, LPS plus IFN-gamma, anti-phospho-IkappaB blot
3T3-L1 adipocytes = test: Glucose uptake in differentiated 3T3-L1 adipocytes; type: cell-based
Experimental: Referring to FIG. 8 glucose uptake in 3T3-L1 differentiated adipocytes was measured after treatment with the test compound. The assay was conducted according to the method of Tafuri, Endocrinology, 137, 4706-4712 (1996). The serum-starved cells were treated with the test compound for 48 hours at different concentrations, then washed and incubated in glucose-free media for 30 minutes at 37° C. Then ^14C-deoxyglucose was added and uptake was monitored for 30 minutes under incubation. After washing, the cells were lysed (0.1% SIDS) and counted.
Basal glucose uptake was measured in differentiated 3T3-L1 adipocytes following the protocol of Tafuri (6) with modifications. Briefly, 3T3-L1 fibroblasts, obtained from ATCC (Manassas, Va.), were differentiated to adipocytes by treating cells with porcine insulin (1 μg/ml for 4 days), dexamethasone (0.25 μM for first 2 days) and isobutyl methyl xanthine (IBMX, 0.5 mM for first 2 days) (all from Sigma Chemicals, St Louis, Mo.) following the protocol of Frost and Lane (7). Differentiated adipocytes were incubated in Dulbecco's Modified Eagle Medium (DMEM) containing 10% fetal bovine serum (GibcoBRL, Gaithersburg, Md.) with various concentrations of Compound 11 or vehicle (0.1% DMSO) for 48 h in 24-well plates, in triplicate. Cells were washed with phosphate buffered saline (PBS, 150 mM NaCl, 1 mM KH2PO4, 3 mM Na2HPO4; pH 7.4) and incubated in glucose-free DMEM for 2 h at 37° C. The cells were washed 3 times with Krebs Ringer Phosphate Buffer (KRP). Glucose uptake was initiated by addition of 0.25 μCi 2-^14C(U)-deoxy-D-glucose (300 μCi/mmol, American Radiolabeled Chemicals Inc., St Louis, Mo.) per well and the cells incubated for 10 min at room temperature in the presence of 0.1 mmol cold 2-deoxy-D-glucose. Finally, the cells were washed three times with ice-cold PBS containing 10 mM cold glucose, lysed with 0.5% SDS, and counted in a scintillation counter (Beckman LS6500).

ob/ob mice = test: Liver enzymes AST/GOT and ALT/GPT in sera of ob/ob mice; type: in vivo; details: 21 days, orally 50 mg/kg, vs untreated or troglitazone-treated mice

SMILES: COC(=O)C(=Cc1cc(OC)cc(OC)c1)c1ccc(Oc2ccc(CC3SC(=O)NC3=O)cc2)cc1 (centres unmarked) [Compound 11, 3-(3,5-Dimethoxyphenyl)-2-{4-[4-(2,4-dioxothiazolidin-5-ylmethyl)-phenoxy]-phenyl}-acrylic acid methyl ester]
- 14C-glucose incorporated into glycogen, dose response (HepG2 cells; FIG. 25A): dose-dependent increase
- maximal increase in glycogen synthesis over baseline (HepG2 cells; at 48 to 72 h, FIG. 25B): 3.1 fold
- inhibition of the phosphorylation of IkappaB (IkappaB): dose-dependent inhibition
- glucose uptake activity in words (3T3-L1 adipocytes; 0.1 μM): retained activity, but less than that of rosiglitazone
- glucose uptake activity in words (3T3-L1 adipocytes; 1 μM): comparable to rosiglitazone
- effect on insulin-stimulated glucose uptake (3T3-L1 adipocytes; 5 μM with increasing insulin, FIG. 20B): additive, not synergistic
- maximum glucose uptake over basal levels (3T3-L1 adipocytes; 0.01-10 μM, 48 h, mean±SE, FIG. 20A): 1.33±0.02 fold
- % Glucose uptake 0.1 μm (3T3-L1 adipocytes; 0.1 μm, average of quadruplicate ± SD): 161.6 ± 11.4 % basal of the non treated cells
- % Glucose uptake 1.0 μm (3T3-L1 adipocytes; 1.0 μm, average of quadruplicate ± SD): 218.1 ± 10.0 % basal of the non treated cells
- AST level (ob/ob mice; FIG. 7A): not elevated
- ALT level (ob/ob mice; FIG. 7B): did not elevate
